Measured values reported in paper PMC8944987, “In Vivo Efficacy of SQ109 against Leishmania donovani, Trypanosoma spp. and Toxoplasma gondii and In Vitro Activity of SQ109 Metabolites” (Biomedicines, 2022).
pEC50, pIC50: −log10 of the molar value. “Also recorded” adds a separate entry of the source. Read-outs that look alike come from different tables or passages of the source.

Legend:
[1] = tested on: intracellular L. donovani amastigotes in THP-1; assay: L. donovani intracellular amastigotes assay in THP-1 (image based); assay type: cell-based
[2] = Reported tissue (liver) accumulation on repeated oral dosing; assay type: in vivo; details: assuming the same volume-to-mass ratio, 28-day oral dosing, 10 mg/kg, from ref 30, read-out: SQ109 liver concentration
[3] = tested on: L. donovani amastigotes; assay: L. donovani (VL) in vivo mouse model, liver LDU; design: species or system BALB/c mice; details: for parasite burden in liver (LDU): 5 days of treatment; for reduction of parasite burden: versus vehicle-treated group
Protocol: BALB/c mice (n = 5) were injected with 2 × 10^7 hamster spleen-derived L. donovani amastigotes via the retro-orbital venous sinus route. From day 7 post-infection, groups of mice were treated using the drug vehicle only, miltefosine (30 mg/kg), or SQ109 (30, 50, 100 mg/kg). On day 16 post-infection, all animals were humanely euthanized and assessed microscopically using Giemsa-stained liver imprints. […] The LDU values for the drug-treated samples were compared to those of the untreated samples.

[4] = Reported plasma protein binding; assay type: in vitro ADME, mice; details: from the reported plasma protein binding
[5] = tested on: L. donovani promastigotes; design: method as in PMID 31897791; details: cited from earlier work
[6] = tested on: L. donovani promastigotes; assay: L. donovani promastigotes assay (resazurin); assay type: cell-based; details: Leishmania donovani
[7] = Host cell toxicity in the T. cruzi amastigote assay; assay type: cell-based; details: human
Protocol: U2OS human osteosarcoma cells were maintained in DMEM supplemented with high glucose, 10% FBS, and 1% P/S at 37 °C with 5% CO2 in air. […] Cell images were acquired by an automated image analyzer (Operetta, Perkin Elmer Technology, Waltham, MA, USA); analysis included at least 1000 cells in five fields per well. For the imaging of infected cells and parasites, Draq-5 was observed under a 20× air objective. An image analysis algorithm (Columbus, Perkin Elmer Technology) was used to detect the Draq-5 signal in the nuclei of cells and parasites as described in a previous article and shown in Supplementary Figure S1 [20]. The number of parasites was defined by the value of the number of parasites in infected cells of the acquired image.

[8] = tested on: T. cruzi trypomastigotes; design: method as in PMID 25583723; details: cited from earlier work
[9] = design: method as in PMID 16432511; details: in mice; cited from earlier work
[10] = cited from earlier work
[11] = tested on: T. b. brucei Lister 427; assay: T. brucei acute in vivo mouse model; design: species or system BALB/c mice
[12] = tested on: T. cruzi epimastigotes; design: method as in PMID 25583723; details: cited from earlier work
[13] = tested on: L. mexicana intracellular amastigotes; design: method as in PMID 27458218; details: cited from earlier work
[14] = tested on: Plasmodium falciparum mature gametocytes (stage IV/V); design: method as in PMID 33431834; details: cited from earlier work
[15] = tested on: T. cruzi Dm28c; assay: T. cruzi acute in vivo mouse model; design: species or system BALB/c mice
Description: BALB/c mice were infected with TCT of T. cruzi Dm28c (10^7 cells) by i.p. injection. Five days post-infection, infected mice were sacrificed to collect BSF of T. cruzi. BALB/c mice were intraperitoneally infected with BSF of T. cruzi Dm28c (5 × 10^4 cells). Five days post-infection, BALB/c mice were infected with previously collected 2nd-round BSF cells (3 × 10^4 cells). Mice were divided into groups (n = 10) and treated orally with drugs for 5 consecutive days for 2 weeks by starting from day 2 post-infection administration of DPBS, 100 mg/kg of benznidazole, or 100 mg/kg of SQ109 via p.o. route, respectively. Parasitemia was evaluated every 2 days for 5 weeks by blood collection from the mouse tail vein, and survival was monitored for 2 months. Mice showing impaired health status were euthanized.

[16] = in vivo, 25 mg/kg; cited from earlier work
[17] = tested on: L. mexicana promastigotes; design: method as in PMID 27458218; details: cited from earlier work
[18] = tested on: T. gondii tachyzoites of the RH strain; assay: T. gondii in vivo mouse model; design: species or system Webster mice; details: for survival of T. gondii infected mice: 20 and 50 mg/kg daily for 10 days
[19] = Adverse effects observed during the in vivo experiments; design: species or system mice; details: tested doses (20 to 100 mg/kg)
[20] = tested on: T. gondii tachyzoites; assay: In vitro activity assay for T. gondii (td-tomato tachyzoites in hTert fibroblasts); assay type: cell-based; details: Toxoplasma gondii, Fibroblast; human fibroblasts (hTert), fluorescence 3 to 4 days; Figure 6A; read-out: IC50, T. gondii cell growth inhibition (intracellular tachyzoite assay)
Protocol: We used a parasite strain expressing red fluorescent protein (td-tomato) for in vitro drug testing. Tachyzoites were maintained in human fibroblasts (hTert cells). Human fibroblasts were cultured in 96-well plates for 24 h prior to the addition of 4000 fluorescent tachyzoites/well. Fluorescence values were measured for 3 to 4 days, and both excitation (544 nm) and emission (590 nm) were read from the bottom of the plates in a Molecular Devices (Molecular Devices, LLC, CA, USA) plate reader.

[21] = tested on: T. cruzi Dm28c epimastigotes; assay: T. cruzi epimastigotes assay (resazurin); assay type: cell-based; details: Trypanosoma cruzi
Protocol: The exponential growth phase of epimastigotes were treated with different concentrations of drugs or 0.1% DMSO as negative control and incubated for 3 days at 28 °C. The viability of parasites was quantified with resazurin as described in the T. brucei assay.

[22] = 100 mg/kg oral gavage, q.d. for 2 weeks

CC(C)=CCC/C(C)=C/CNCCNC1C2CC3CC(C2)CC1C3 (stereo not drawn) [SQ109, N-adamantan-2-yl-N’-((E)-3,7-dimethyl-octa-2,6-dienyl)-ethane-1,2-diamine]
anti-amastigote activity in the current study less than the reported one ([1]; L. donovani, THP-1 (this study) versus J774 (ref 10)): ~ 200 fold | pIC50 ([1]; Leishmania donovani, 72 h, differentiated THP-1 host cells, 3 days of compound incubation, Figure 2F): 5.86 | concentration at 28 days [2]: ~6 µM | parasite burden in liver (LDU) ([3]; 30 mg/kg): 1060 ± 110 LDU | parasite burden in liver (LDU) ([3]; 50 mg/kg): 772 ± 89 LDU | reduction of parasite burden ([3]; 50 mg/kg): 31.8% | parasite burden in liver (LDU) ([3]; 100 mg/kg): 737 ± 145 LDU | reduction of parasite burden ([3]; 100 mg/kg): 34.9% | free-drug fraction expected in mice plasma [4]: ~ 90% | pIC50 [5]: 6.20 | pEC50 ([6]; promastigotes, read-out: L. donovani EC50 (PRO)): 6.55 | pIC50 ([6]; 72 h, Figure 2E, read-out: IC50, L. donovani promastigote growth): 6.76 | CC50 at 3 days ([7]; 3 days of compound incubation, Figure 2D, read-out: half-maximal cytotoxic concentration (CC50) against the host U2OS): 2.95 µM | CC50 at 3 days ([7]; amastigote host cells, read-out: T. cruzi Dm28c CC50 (U2OS)): 3.6 µM | pIC50 [8]: 7.30 | plasma protein binding [9]: 5.8–8.5% | maximum tolerated dose (MTD) [10]: 600 mg/kg | extended survival compared to the vehicle control ([11]; 30 mg/kg, q.d. for 5 days, p.o.): 3.4 days | average day of survival ([11]; 30 mg/kg, q.d. for 5 days, p.o., T. brucei infected BALB/c mice): 8.6 days | average days of extended survival compared to the vehicle control ([11]; 100 mg/kg, q.d. for 5 days, p.o.): 3.6 days | parasitemia in blood, in words ([11]; 30 or 100 mg/kg p.o. for 5 days, Figure 3B): parasitemia rapidly increased after the termination of SQ109 administration; also recorded: not able to completely clear the parasites in the bloodstream | pIC50 [12]: 5.34 | pIC50 [13]: ~7.96 | pIC50 [14]: 6.98 | delay of the peak of parasitemia compared to the vehicle control [15, 22]: 4 days | peak of parasitemia [15, 22]: 18 days post-infection | parasite reduction at the peak of parasitemia of the vehicle group ([15]; 100 mg/kg oral gavage, q.d. for 2 weeks, 14 days post-infection): 46.1% | survival of T. cruzi infected mice ([15]; 100 mg/kg p.o., 40 days post-infection): 80% | t1/2 (terminal phase) [16]: 5.2 h | pIC50 [17]: ~6.30 | survival / protection of T. gondii infected mice against the initial infection ([18]; hypervirulent RH strain, 50 mg/kg i.p.): Eighty percent | survival of T. gondii infected mice ([18]; i.p., Figure 6B): 50–80% | survival of T. gondii infected mice ([18]; oral gavage, 40 days post-infection, Figure 6C): 30–40% | animals surviving the re-challenge at day 42 ([18]; treated with 20 mg/kg/day): 4 out of 6 | outcome of the re-challenge at 42 days, in words ([18]; treated with 50 mg/kg/day): all died with the challenge | adverse effects throughout the in vivo experiments [19]: did not observe any adverse effects | pIC50 [20]: 5.74 | pIC50 ([21]; 72 h, Figure 2C, read-out: IC50, T. cruzi epimastigote growth inhibition (resazurin reduction)): 4.90 | pEC50 ([21]; epimastigotes, read-out: T. cruzi Dm28c EC50 (EPI)): 5.35
